# Source: the NIST ThermoML archive (doi:10.1021/je400683g)
# ± gives the expanded uncertainty stated by the source.
# Columns and labels:
# [1] = refractive index (Na D-line) (dimensionless); settings: 298.15 K; 101.33 kPa; Liquid; Standard Abbe refractometry
# [2] = for surface tension liquid-gas: Maximal bubble pressure; for vapor or sublimation pressure: Closed cell (Static) method
# [3] = xn = mol fraction of the nth substance listed; settings: 298.15 K, Maximal bubble pressure
smiles,measurement,setting,value
"Cc1ccc(C)o1 [2,5-dimethylfuran]",refractive index,[1],1.44012 ± 0.00032
same,surface tension liquid-gas,[2]; 298.15 K,25.1 ± 0.27 mN/m
same,mass density,"[2]; 298.15 K, 101.33 kPa, Liquid, Vibrating tube method",896.54 ± 0.09 kg/m3
same,vapor or sublimation pressure,"[2]; 345.2 K, Liquid",50 ± 0.25 kPa
same,vapor or sublimation pressure,"[2]; 357.18 K, Liquid",75 ± 0.41 kPa
same,vapor or sublimation pressure,"[2]; 364.36 K, Liquid",94 ± 0.56 kPa
same,vapor or sublimation pressure,"[2]; 366.83 K, Liquid",101.33 ± 0.6 kPa
"Cc1ccc(C)o1 [2,5-dimethylfuran] + CCO",surface tension liquid-gas,[3]; x2 = 0,25.1 ± 0.27 mN/m
same,surface tension liquid-gas,[3]; x2 = 0.049,24.96 ± 0.27 mN/m
same,surface tension liquid-gas,[3]; x2 = 0.09,24.89 ± 0.27 mN/m
same,surface tension liquid-gas,[3]; x2 = 0.176,24.68 ± 0.27 mN/m
same,surface tension liquid-gas,[3]; x2 = 0.29,24.38 ± 0.27 mN/m
same,surface tension liquid-gas,[3]; x2 = 0.386,24.22 ± 0.27 mN/m
same,surface tension liquid-gas,[3]; x2 = 0.492,23.93 ± 0.27 mN/m
same,surface tension liquid-gas,[3]; x2 = 0.594,23.73 ± 0.26 mN/m
same,surface tension liquid-gas,[3]; x2 = 0.701,23.4 ± 0.26 mN/m
same,surface tension liquid-gas,[3]; x2 = 0.804,23.02 ± 0.26 mN/m
same,surface tension liquid-gas,[3]; x2 = 0.915,22.73 ± 0.26 mN/m
same,surface tension liquid-gas,[3]; x2 = 0.963,22.5 ± 0.26 mN/m
CCO [ethanol],refractive index,[1],1.36068 ± 0.00031
same,surface tension liquid-gas,[2]; 298.15 K,22.1 ± 0.26 mN/m
same,vapor or sublimation pressure,"[2]; 323.51 K, Liquid",30.01 ± 0.08 kPa
same,vapor or sublimation pressure,"[2]; 326.79 K, Liquid",35.01 ± 0.09 kPa
same,vapor or sublimation pressure,"[2]; 329.68 K, Liquid",40.01 ± 0.1 kPa
same,vapor or sublimation pressure,"[2]; 332.27 K, Liquid",45.01 ± 0.1 kPa
same,vapor or sublimation pressure,"[2]; 334.57 K, Liquid",50 ± 0.2 kPa
same,vapor or sublimation pressure,"[2]; 334.63 K, Liquid",50.01 ± 0.11 kPa
same,vapor or sublimation pressure,"[2]; 336.8 K, Liquid",55.01 ± 0.11 kPa
same,vapor or sublimation pressure,"[2]; 338.81 K, Liquid",60.01 ± 0.12 kPa
same,vapor or sublimation pressure,"[2]; 340.68 K, Liquid",65.01 ± 0.13 kPa
same,vapor or sublimation pressure,"[2]; 342.43 K, Liquid",70.01 ± 0.14 kPa
same,vapor or sublimation pressure,"[2]; 344.02 K, Liquid",75 ± 0.34 kPa
same,vapor or sublimation pressure,"[2]; 344.09 K, Liquid",75.01 ± 0.14 kPa
same,vapor or sublimation pressure,"[2]; 345.64 K, Liquid",80.01 ± 0.15 kPa
same,vapor or sublimation pressure,"[2]; 347.13 K, Liquid",85.01 ± 0.16 kPa
same,vapor or sublimation pressure,"[2]; 348.54 K, Liquid",90.01 ± 0.16 kPa
same,vapor or sublimation pressure,"[2]; 349.56 K, Liquid",94 ± 0.42 kPa
same,vapor or sublimation pressure,"[2]; 349.89 K, Liquid",95.01 ± 0.17 kPa
same,vapor or sublimation pressure,"[2]; 351.51 K, Liquid",101.33 ± 0.2 kPa
same,vapor or sublimation pressure,"[2]; 351.68 K, Liquid",102.01 ± 0.18 kPa
CCO [ethanol] + Cc1ccc(C)o1,surface tension liquid-gas,[3]; x1 = 1,22.1 ± 0.26 mN/m
